Laboratory results taken from patent US10836764B2, “5-HT2C receptor agonists and compositions and methods of use” (Arena Pharmaceuticals, Inc., priority 2016, dated 2020).
Read-outs that look alike come from different tables or passages of the source.

How the values were obtained:
[1] = molecular target: T1, 5-HT2C receptor (Homo sapiens (Human), UniProt P28335); assay: IP accumulation assay, 5-HT2C; format: cell-based
Description: (§1) HEK293 cells expressing recombinant 5-HT2 receptors were added to sterile poly-D-lysine-coated 96-well microtiter plates (35,000 cells/well) and labeled with 0.6 μCi/well of [^3H]inositol in myoinositol-free DMEM for 18 h. Unincorporated [^3H]inositol was removed by aspiration and replaced with fresh myoinositol-free DMEM supplemented with LiCl (10 mM final) and pargyline (10 μM final). Serially diluted test compounds were then added and incubation was conducted for 2 h at 37° C. (5-HT2B, and 5-HT2A) and RT (5-HT2C). Incubations were then terminated by lysing cells with the addition of ice-cold 0.1 M formic acid followed by freezing at −80° C. After thawing, total [^3H]inositol phosphates were resolved from [^3H]inositol using AG1-X8 ion exchange resin (Bio-Rad) and [^3H]inositol phosphates were measured by scintillation counting using a Perkin Elmer TopCount® scintillation counter. All EC50 determinations were performed using 10 different concentrations and triplicate determinations were made at each test concentration.

[2] = molecular target: T2, 5-HT2A receptor (Homo sapiens (Human), UniProt P28223); assay: IP accumulation assay, 5-HT2A; format: cell-based
T2 sequence (P28223 whole entry): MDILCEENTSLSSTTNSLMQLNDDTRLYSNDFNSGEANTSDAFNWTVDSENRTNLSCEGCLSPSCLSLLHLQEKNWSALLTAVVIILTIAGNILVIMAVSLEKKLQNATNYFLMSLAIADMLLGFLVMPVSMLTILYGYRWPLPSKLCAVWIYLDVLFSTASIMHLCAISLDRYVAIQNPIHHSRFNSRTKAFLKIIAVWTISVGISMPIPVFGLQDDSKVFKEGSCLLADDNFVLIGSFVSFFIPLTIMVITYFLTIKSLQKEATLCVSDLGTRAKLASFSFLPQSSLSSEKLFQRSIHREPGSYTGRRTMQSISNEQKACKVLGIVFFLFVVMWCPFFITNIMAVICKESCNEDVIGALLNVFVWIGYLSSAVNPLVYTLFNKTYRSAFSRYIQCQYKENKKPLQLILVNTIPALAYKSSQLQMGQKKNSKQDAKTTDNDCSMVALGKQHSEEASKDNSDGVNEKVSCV
Description: as §1

[3] = molecular target: T2, 5-HT2A receptor; assay: DOI radioligand binding assay, 5-HT2A
Description: (§2) For the compounds of Table A, the following procedure was used. HEK293 cells stably expressing recombinant 5-HT2 receptors were harvested, suspended in ice-cold phosphate buffered saline, pH 7.4 (PBS), and then centrifuged at 48,000 g for 20 min at 4° C. The resulting cell pellet was then re-suspended in wash buffer containing 20 mM HEPES, pH 7.4 and 0.1 mM EDTA, homogenized on ice using a Brinkman Polytron, and centrifuged (48,000 g for 20 min at 4° C.). The pellet was then resuspended in 20 mM HEPES, pH 7.4, homogenized on ice, and centrifuged (48,000 g for 20 min at 4° C.). Crude membrane pellets were stored at −80° C. until used for radioligand binding assays.
(§3) For the compounds of Table A, the following procedure was used. […] Experiments comprised addition of 95 μL of assay buffer (20 mM HEPES, pH 7.4, 10 mM MgCl2), 50 μL of membranes, 50 μL of radioligand stock, and 5 μL of test compound diluted in assay buffer to 96-well microtiter plates, which were then incubated for 1 h at room temperature. Assay incubations were terminated by rapid filtration through PerkinElmer F/C filtration plates under reduced pressure using a 96-well Packard filtration apparatus, followed by washing three times with ice cold assay buffer. Plates were then dried at 45° C. for a minimum of 2 h. Finally, 25 μL of BetaScint™ scintillation cocktail was added to each well and the plates were counted in a Packard TopCount® scintillation counter. In each competition study, test compounds were dosed at ten concentrations with triplicate determinations at each test concentration.

[4] = molecular target: T1, 5-HT2C receptor; assay: DOI radioligand binding assay, 5-HT2C
Description: as §2, §3

[5] = molecular target: 5-HT2B receptor (Homo sapiens (Human), UniProt P41595); assay: DOI radioligand binding assay, 5-HT2B; details: [125I]DOI competition, HEK293 cell membranes
5-HT2B receptor, sequence (P41595 whole entry): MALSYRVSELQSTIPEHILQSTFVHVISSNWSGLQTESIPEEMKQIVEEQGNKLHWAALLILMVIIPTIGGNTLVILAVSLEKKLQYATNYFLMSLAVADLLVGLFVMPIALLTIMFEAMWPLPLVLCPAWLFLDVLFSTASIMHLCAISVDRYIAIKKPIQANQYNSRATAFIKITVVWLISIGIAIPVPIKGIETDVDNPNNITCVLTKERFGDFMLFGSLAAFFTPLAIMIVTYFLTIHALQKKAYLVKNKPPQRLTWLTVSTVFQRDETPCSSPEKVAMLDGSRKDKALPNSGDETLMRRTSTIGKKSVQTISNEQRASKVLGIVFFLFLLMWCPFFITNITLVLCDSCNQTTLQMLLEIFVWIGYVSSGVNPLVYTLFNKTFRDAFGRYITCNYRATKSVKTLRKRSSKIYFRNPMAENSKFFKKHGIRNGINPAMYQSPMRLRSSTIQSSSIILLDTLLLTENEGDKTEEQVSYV
Description: as §2, §3

[6] = IP accumulation, HEK293 cells, 2 h at RT, read-out: EC50 5HT2C
[7] = IP accumulation, HEK293 cells, 2 h at 37° C., read-out: EC50 5HT2A
[8] = [125I]DOI competition, HEK293 cell membranes, read-out: DOI Binding 5HT2A

T1 sequence (P28335 33-458): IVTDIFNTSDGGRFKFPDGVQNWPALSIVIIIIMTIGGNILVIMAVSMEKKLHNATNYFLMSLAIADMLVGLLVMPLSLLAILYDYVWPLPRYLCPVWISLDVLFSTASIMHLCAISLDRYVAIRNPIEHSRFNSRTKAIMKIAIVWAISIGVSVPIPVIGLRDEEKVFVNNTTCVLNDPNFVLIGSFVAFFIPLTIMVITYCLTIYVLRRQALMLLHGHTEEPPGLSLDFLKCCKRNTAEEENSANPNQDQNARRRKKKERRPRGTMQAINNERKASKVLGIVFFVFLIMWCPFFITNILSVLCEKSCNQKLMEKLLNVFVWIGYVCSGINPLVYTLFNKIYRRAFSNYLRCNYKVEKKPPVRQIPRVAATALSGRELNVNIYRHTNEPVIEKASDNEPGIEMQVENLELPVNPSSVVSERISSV

Row | SMILES | Ki [3, 8] | Ki [4] | Ki [5] | other results
1 | c1ccc(Cc2ccnc3c2CC[C@@H]2CNCCN32)cc1 [Compound 106, (R)-4-benzyl-6,6a,7,8,9,10-hexahydro-5H-pyrazino[1,2-a][1,8]naphthyridine] | 1.19 nM | 0.277 nM | – | EC50 [1, 6]: 0.116 nM; EC50 [2, 7]: 53.2 nM
2 | COCCc1ccnc2c1CC[C@@H]1CNCCN21 [Compound 107, (R)-4-(2-methoxyethyl)-6,6a,7,8,9,10-hexahydro-5H-pyrazino[1,2-a][1,8]naphthyridine] | 99.5 nM | – | 177 nM | –
3 | CCCCCc1ccnc2c1CC[C@@H]1CNCCN21 [Compound 108, (R)-4-pentyl-6,6a,7,8,9,10-hexahydro-5H-pyrazino[1,2-a][1,8]naphthyridine] | 2.3 nM | 0.401 nM | – | –
4 | CCc1ccnc2c1CC[C@@H]1CNCCN21 [Compound 110, (R)-4-ethyl-6,6a,7,8,9,10-hexahydro-5H-pyrazino[1,2-a][1,8]naphthyridine] | 16.1 nM | 0.562 nM | – | –
5 | CC(C)c1ccnc2c1CC[C@@H]1CNCCN21 [Compound 111, (R)-4-isopropyl-6,6a,7,8,9,10-hexahydro-5H-pyrazino[1,2-a][1,8]naphthyridine] | – | 0.874 nM | – | –
6 | CCCCc1ccnc2c1CC[C@@H]1CNCCN21 [Compound 112, (R)-4-butyl-6,6a,7,8,9,10-hexahydro-5H-pyrazino[1,2-a][1,8]naphthyridine] | 10.6 nM | 0.5 nM | – | –
7 | CCCc1ccnc2c1CC[C@@H]1CNCCN21 [Compound 113, (R)-4-propyl-6,6a,7,8,9,10-hexahydro-5H-pyrazino[1,2-a][1,8]naphthyridine] | 6.85 nM | 0.162 nM | – | EC50 [1]: 0.0656 nM
8 | Fc1cccc(Cc2ccnc3c2CC[C@@H]2CNCCN32)c1 [Compound 115, (R)-4-(3-fluorobenzyl)-6,6a,7,8,9,10-hexahydro-5H-pyrazino[1,2-a][1,8]naphthyridine] | – | 0.195 nM | – | EC50 [1, 6]: 0.19 nM; EC50 [2, 7]: 37.2 nM; Ki [3]: 0.506 nM
9 | Fc1ccccc1Cc1ccnc2c1CC[C@@H]1CNCCN21 [Compound 116, (R)-4-(2-fluorobenzyl)-6,6a,7,8,9,10-hexahydro-5H-pyrazino[1,2-a][1,8]naphthyridine] | 2.65 nM | 0.304 nM | – | EC50 [1]: 0.314 nM; EC50 [2]: 152 nM
10 | c1csc(-c2ccnc3c2CC[C@@H]2CNCCN32)c1 [Compound 126, (R)-4-(thiophen-2-yl)-6,6a,7,8,9,10-hexahydro-5H-pyrazino[1,2-a][1,8]naphthyridine] | 68.8 nM | – | 122 nM | –
11 | c1cc(CC2CCCCO2)c2c(n1)N1CCNC[C@H]1CC2 (stereo partly drawn) [Compound 132, (6aR)-4-((tetrahydro-2H-pyran-2-yl)methyl)-6,6a,7,8,9,10-hexahydro-5H-pyrazino[1,2-a][1,8]naphthyridine] | 212 nM | – | 1090 nM | –
12 | c1cc(COCC2CCOCC2)c2c(n1)N1CCNC[C@H]1CC2 [Compound 133, (R)-4-(((tetrahydro-2H-pyran-4-yl)methoxy)methyl)-6,6a,7,8,9,10-hexahydro-5H-pyrazino[1,2-a][1,8]naphthyridine] | 1670 nM | – | 844 nM | Ki ([4]; read-out: DOI Binding 5HT2C): 1250 nM
13 | N#CCCc1ccnc2c1CC[C@@H]1CNCCN21 [Compound 142, (R)-3-(6,6a,7,8,9,10-hexahydro-5H-pyrazino[1,2-a][1,8]naphthyridin-4-yl)propanenitrile] | 840 nM | – | 665 nM | –
14 | C/C=C/Cc1ccnc2c1CC[C@@H]1CNCCN21 [Compound 144, (R,E)-4-(but-2-en-1-yl)-6,6a,7,8,9,10-hexahydro-5H-pyrazino[1,2-a][1,8]naphthyridine] | 5.01 nM | 0.548 nM | – | –
15 | CC(C)OCc1ccnc2c1CC[C@@H]1CNCCN21 [Compound 145, (R)-4-(isopropoxymethyl)-6,6a,7,8,9,10-hexahydro-5H-pyrazino[1,2-a][1,8]naphthyridine] | 222 nM | – | 209 nM | –
16 | Clc1ccc(-c2ccnc3c2CC[C@@H]2CNCCN32)nc1 [Compound 146, (R)-4-(5-chloropyridin-2-yl)-6,6a,7,8,9,10-hexahydro-5H-pyrazino[1,2-a][1,8]naphthyridine] | 5390 nM | – | 1020 nM | Ki ([4]; read-out: DOI Binding 5HT2C): 3110 nM
17 | Brc1ccnc2c1CC[C@@H]1CNCCCN21 [Compound 156, (R)-4-bromo-5,6,6a,7,8,9,10,11-octahydro-[1,4]diazepino[1,2-a][1,8]naphthyridine] | 1390 nM | – | 127 nM | –
18 | FC(F)(F)CCc1ccnc2c1CC[C@@H]1CNCCCN21 [Compound 157, (R)-4-(3,3,3-trifluoropropyl)-5,6,6a,7,8,9,10,11-octahydro-[1,4]diazepino[1,2-a][1,8]naphthyridine] | 1140 nM | – | 721 nM | –
19 | CSc1nc(Cl)c2c(n1)N1CCCNC[C@H]1CC2 [Compound 159, (R)-4-chloro-2-(methylthio)-5,6,6a,7,8,9,10,11-octahydropyrimido[5′,4′:5,6]pyrido[1,2-a][1,4]diazepine] | 12300 nM | – | 272 nM | Ki ([4]; read-out: DOI Binding 5HT2C): 1600 nM
20 | Clc1ncnc2c1CC[C@@H]1CNCCCN21 [Compound 160, (R)-4-chloro-5,6,6a,7,8,9,10,11-octahydropyrimido[5′,4′:5,6]pyrido[1,2-a][1,4]diazepine] | 100000 nM | – | 1830 nM | Ki ([4]; read-out: DOI Binding 5HT2C): 5560 nM
21 | CCc1c(CCC#N)cnc2c1CC[C@@H]1CNCCN21 [Compound 162, (R)-3-(4-ethyl-6,6a,7,8,9,10-hexahydro-5H-pyrazino[1,2-a][1,8]naphthyridin-3-yl)propanenitrile] | 1260 nM | – | 251 nM | –
22 | CCc1c(CC2CCCCC2)cnc2c1CC[C@@H]1CNCCN21 [Compound 164, (R)-3-(cyclohexylmethyl)-4-ethyl-6,6a,7,8,9,10-hexahydro-5H-pyrazino[1,2-a][1,8]naphthyridine] | 703 nM | – | – | Ki ([4]; read-out: DOI Binding 5HT2C): 233 nM
23 | CCc1c(CC2CCCCO2)cnc2c1CC[C@@H]1CNCCN21 (stereo partly drawn) [Compound 165, (6aR)-4-ethyl-3-((tetrahydro-2H-pyran-2-yl)methyl)-6,6a,7,8,9,10-hexahydro-5H-pyrazino[1,2-a][1,8]naphthyridine] | 890 nM | – | – | Ki ([4]; read-out: DOI Binding 5HT2C): 570 nM
24 | CN1CCN2c3nccc(CCC(F)(F)F)c3CC[C@@H]2C1 [Compound 168, (R)-8-methyl-4-(3,3,3-trifluoropropyl)-6,6a,7,8,9,10-hexahydro-5H-pyrazino[1,2-a][1,8]naphthyridine] | 58 nM | – | 331 nM | –
25 | c1cc(CC2CCCC2)c2c(n1)N1CCNC[C@H]1CC2 [Compound 170, (R)-4-(cyclopentylmethyl)-6,6a,7,8,9,10-hexahydro-5H-pyrazino[1,2-a][1,8]naphthyridine] | – | 0.79 nM | – | –
26 | Brc1cncc2c1CC[C@@H]1CNCCN21 [Compound 172, (R)-4-bromo-6,6a,7,8,9,10-hexahydro-5H-pyrazino[1,2-a][1,7]naphthyridine] | 72.3 nM | – | 13 nM | –
27 | c1ncc2c(c1CC1CCCCC1)CC[C@@H]1CNCCN21 [Compound 174, (R)-4-(cyclohexylmethyl)-6,6a,7,8,9,10-hexahydro-5H-pyrazino[1,2-a][1,7]naphthyridine] | 107 nM | – | 140 nM | –
